# Results: patent US7923204B2, “Forward mutation assay based on 5-fluorouracil resistance” (priority 2003, dated 2011)
# Where two headings read alike, the source gives them in different places. Marks after values point to notes of the source that are not given here.
# Assays:
# TA100, TA1535 = tested on: TA100, TA1535
# Source text: As stated above, the Ames Salmonella his+ plate incorporation assay evaluates genotoxic activity (mutagenicity) of chemical compounds on a set of genetically modified bacterial tester strains that are auxotrophic for the amino acid histidine. In practice, the Ames Assay simultaneously evaluates the genotoxic activity of a potential mutagen on several different target genes. The standard Ames Assay utilizes several different tester strains, each with a distinct mutation (e.g., transition, frameshift etc.) in one of the genes comprising the histidine (his) biosynthetic operon. The his operon encodes enzymes required for the biosynthesis of the amino acid histidine. For example, strain TA98 contains the hisD3052 allele which is reverted by a frameshift mutation, while strain TA1535 contains the hisG46 allele which is reverted by transition and transversion mutations. More specifically, the Ames Assay evaluates the ability of a chemical agent to increase the rate of reversion of auxotrophic strains of Salmonella to prototrophy.
# Salmonella = conditions: cited from earlier work
# FU100 [1] = tested on: FU100
# Procedure: Briefly, in order to practice the disclosed mutation assay one-ml aliquots of exponentially growing bacteria are exposed to the test agent for two hours in the presence and absence of a metabolic activation system, such as a mammalian (i.e., rat, hamster or human) liver homogenate (S9-fraction or liver microsomal enzymes). The aliquots are then diluted, allowed to grow for 3 hours, and assessed for treatment-related toxicity/inhibition by optical density. The cultures are subsequently diluted a second time and grown overnight to permit full recovery from toxicity and to allow expression of the FU^R phenotype. Samples of the cultures are then plated in 384-well microtiter dishes in the presence of 2 μg/ml 5-FU and the pH-sensitive indicator bromcresol purple. Three days later positive wells containing FU^R colonies are detected by their yellow color and enumerated. Treated cultures are then compared to control plates to determine genotoxic activity.
# For each mutation experiment, two frozen 1-ml aliquots of FU100 were quickly thawed in a 37° C. water bath, pelleted by centrifugation, washed to remove the DMSO, and suspended in 35 mL of MinE medium. The culture was shaken for approximately 1 hour at 37° C. until the optical density at 600 nm (OD600) reached the target density of 0.3. A 16-ml aliquot of culture was added to each of two 50-ml tubes containing 3.6 ml of a NADPH-generating system (5.6 mM glucose-6-phosphate, 4.5 mM NADP+, 5 mM sucrose, 110 mM Na2HPO4, 37 mM KCl, and 9 mM MgCl2) and either 0.4 ml rat liver S-9 or an equal volume of sodium phosphate buffer. Aliquots of these mixtures were distributed into three 12-well cluster dishes (one for exposure with S-9, one for exposure without S-9, one for controls with and without S-9), and exposed to test compounds as 1-ml aliquots for 2 hour as outlined in FIG. 1.
# Following treatment, the 1-ml aliquots were transferred into 9 ml of warm MinE medium in a 50 ml tube and incubated at 37° C. on a rotary wheel for 3 hours. Next, 20 ml of medium was added to each culture tube and 0.25 ml aliquots were transferred to a 96-well plate for OD600 measurements to assess toxicity (OD Day 1). […] Bulk cultures were then incubated overnight in the dark at 30° C. to permit recovery from toxicity and to allow time for the test cells to express the FU^R phenotype.
# The next day, OD600 was again assessed to adjust cell number plated on 5-FU plates (OD Day 2; 100 μl of the culture diluted with 150 μl MinE medium for OD600 measurements). For plating, a 35 μl aliquot of each culture was added to 31.4 mL of MinE medium with 2 μg/ml of 5-FU and 10 μg/ml of bromcresol purple. The mixture was then dispersed into a 384-well plate (75 μl/well) and placed at 37° C. for 3 days in a humidified incubator.
# The data obtained for both survival (OD day 1), relative number of cells plated (OD day 2), and number of positive wells were imported into an Excel template.
# Table 8 summarizes the criteria for positive result in 5-FU assay using the FU100 tester strain described and claimed herein. […] A positive compound was defined when two or more doses met the aforementioned criteria.
# [2] = tested on: sister chromatid exchange; conditions: cited from earlier work
# mouse lymphoma = conditions: cited from earlier work
# FU100 [3] = tested on: FU100; remark: listed apart in the source
# chromosome aberrations = conditions: cited from earlier work
# micronucleus = conditions: cited from earlier work
# [4] = NTP Results Report 12 Aug. 2002
# [5] = NTP Results Report 12 Aug. 2002 or cited reference (footnotes f, g, i, j)
# [6] = in the presence of S9 activation (+), approximate, first dose with greater than 50% survival by optical density on Day 1
# [7] = without S9 activation (−), approximate, first dose with greater than 50% survival by optical density on Day 1
# [8] = in the presence of S9 activation (+), FU100, 2 h exposure
# [9] = without S9 activation (−), FU100, 2 h exposure
# [10] = without S9 activation (−), lowest dose tested giving a positive response
Structure (SMILES),NTP Results: SA = Salmonella (Salmonella),Results (5-FU assay) (FU100 [1]),response in the 5-FU Assay (in words) (FU100 [1]),NTP Results: SC = sister chromatid exchange [2],NTP Results: ML = mouse lymphoma (mouse lymphoma),NTP Results: CA = chromosome aberrations (chromosome aberrations),"NTP Results: SC = sister chromatid exchange [2, 4]",NTP Results: SA = Salmonella (Salmonella; [5]),NTP Results: CA = chromosome aberrations (chromosome aberrations; [4]),NTP Results: ML = mouse lymphoma (mouse lymphoma; [4]),LD50 (FU100 [3]; [6]) [µg/mL],LD50 (FU100 [3]; [7]) [µg/mL],Results (5-FU assay) (FU100 [1]; [8]),Results (5-FU assay) (FU100 [1]; [9]),also measured
OO [Hydrogen Peroxide],(SA+^w),Pos,positive compounds in toxic concentrations,,,,,,,,,,,,"response in the standard Ames assay (in words) (TA100, TA1535): weak or equivocal response; Lowest Positive Dose (FU100 [1]; Salmonella typhimurium): 3 µg/mL; Results (5-FU assay) (FU100 [1]; s9): Neg; response in the 5-FU Assay (in words) (FU100 [1]; text and figure legend (FIG. 6), with or without S9): easy to detect"
OCCO [Ethylene Glycol],"(SA−, CA−, SC−, ML−)",Neg,,"(SA−, CA−, SC−, ML−)","(SA−, CA−, SC−, ML−)","(SA−, CA−, SC−, ML−)",,,,,,,,,LD50 (FU100 [3]; Salmonella typhimurium): >5000 µg/mL
CC(C)CON=O [Isobutyl Nitrite],,Pos,positive compounds in toxic concentrations,,,,"(SA+, CA+, SC+, MN+)","(SA+, CA+, SC+, MN+)","(SA+, CA+, SC+, MN+)",,,,,,"NTP Results: MN = micronucleus (micronucleus; [4]): (SA+, CA+, SC+, MN+)"
COC(=O)[C@H]1[C@H]2C[C@@H]3c4[nH]c5cc(OC)ccc5c4CCN3C[C@H]2C[C@@H](OC(=O)c2cc(OC)c(OC)c(OC)c2)[C@@H]1OC [Reserpine],,,,,,,−,−,,−,>1500,>1500,Neg,Neg,NTP Results: MN = micronucleus (micronucleus; [4]): −
CC/C(=C(/CC)c1ccc(O)cc1)c1ccc(O)cc1 [Diethylstilbestrol],"(SA−, CA+, SC−, ML+)",Neg,,,,,−,,+,+,,,,,
Nc1ccc([N+](=O)[O-])cc1O [2-Amino-5-nitrophenol],,,,,,,"(SA+, CA+, SC+, ML+)","(SA+, CA+, SC+, ML+)","(SA+, CA+, SC+, ML+)","(SA+, CA+, SC+, ML+)",>150,>300,Neg,Pos,Lowest Positive Dose (FU100 [1]; [10]): 2.8 µg/mL
Oc1ccccc1 [Phenol],"(SA−, CA+, SC+, ML+)",Neg,negative/toxic,"(SA−, CA+, SC+, ML+)","(SA−, CA+, SC+, ML+)","(SA−, CA+, SC+, ML+)",,,,,,,,,
Oc1cccc2cccnc12 [8-Hydroxyquinoline],"(SA+, CA+^w, SC+, ML+, MN−)",,positive compounds in toxic concentrations,"(SA+, CA+^w, SC+, ML+, MN−)","(SA+, CA+^w, SC+, ML+, MN−)","(SA+, CA+^w, SC+, ML+, MN−)",,,,,,,,,"NTP Results: MN = micronucleus (micronucleus): (SA+, CA+^w, SC+, ML+, MN−)"
Nc1ncn([C@@H]2O[C@H](CO)[C@@H](O)[C@H]2O)c(=O)n1 [5-Azacytidine],"(SA+, CA+, SC+, ML+, MN+)",Pos,,"(SA+, CA+, SC+, ML+, MN+)","(SA+, CA+, SC+, ML+, MN+)","(SA+, CA+, SC+, ML+, MN+)",,,,,>5,>3,,,"NTP Results: MN = micronucleus (micronucleus): (SA+, CA+, SC+, ML+, MN+)"
COc1ccc(O)c(C(C)(C)C)c1 [Butylated Hydroxyanisole],,,,,,,,"(SA−, MN−)",,,>30,>30,Neg,Neg,"NTP Results: MN = micronucleus (micronucleus; [4]): (SA−, MN−)"
CCCCC(CC)COC(=O)c1ccccc1C(=O)OCC(CC)CCCC (centres unmarked) [Di (2-ethylhexyl) phthalate],"(SA−, CA−, SC+−?, ML−, MN?)",Neg,negative/non-toxic,"(SA−, CA−, SC+−?, ML−, MN?)","(SA−, CA−, SC+−?, ML−, MN?)","(SA−, CA−, SC+−?, ML−, MN?)",,,,,>5000,>5000,,,"NTP Results: MN = micronucleus (micronucleus): (SA−, CA−, SC+−?, ML−, MN?)"
O=C1CN(/N=C/c2ccc([N+](=O)[O-])o2)C(=O)N1 [Nitrofurantoin],"(SA+, CA+, SC+, ML+, MN−)",Pos,,"(SA+, CA+, SC+, ML+, MN−)","(SA+, CA+, SC+, ML+, MN−)","(SA+, CA+, SC+, ML+, MN−)",,,,,,,,,"NTP Results: MN = micronucleus (micronucleus): (SA+, CA+, SC+, ML+, MN−); LD50 (FU100 [3]; Salmonella typhimurium): >1 µg/mL; Lowest Positive Dose (FU100 [1]; Salmonella typhimurium): 0.1 µg/mL"
[N-]=[N+]=[N-] [Sodium Azide],,,,,,,+,+,−,,>30,>50,Pos^w,Pos^w,"response in the standard Ames assay (in words) (TA100, TA1535; TA100 or TA1535, plate incorporation or liquid suspension): extremely sensitive; concentration producing a positive response in the 5-FU Assay (FU100 [1]; S9 condition not stated): greater than 90 μg/ml; Lowest Positive Dose (FU100 [1]; in the presence of S9 activation (+), lowest dose tested giving a positive response): 90 µg/mL; Lowest Positive Dose (FU100 [1]; [10]): 160 µg/mL"
CC1CCC(C(C)C)C(O)C1 (centres unmarked) [Menthol],,,,,,,"(SA−, CA−, SC−, ML−, MN−)","(SA−, CA−, SC−, ML−, MN−)","(SA−, CA−, SC−, ML−, MN−)","(SA−, CA−, SC−, ML−, MN−)",>9,>16,Neg,Neg,"NTP Results: MN = micronucleus (micronucleus; [4]): (SA−, CA−, SC−, ML−, MN−)"
"Oc1ccc(Cl)cc1Cl [2,4-Dichlorophenol]",,,,,,,+,,−,+,,,Neg,Neg,
C=CCc1ccc2c(c1)OCO2 [Safrole],"(SA−, CA−, SC+ ML+)",Neg,,"(SA−, CA−, SC+ ML+)","(SA−, CA−, SC+ ML+)","(SA−, CA−, SC+ ML+)",,,,,>50,>60,,,
